Assay: excess molar enthalpy (molar enthalpy of mixing); xn = mol fraction of the nth substance listed
Conditions: 100 kPa, Liquid, Flow calorimetry

Cc1ccccc1 [toluene] + CCCO
excess molar enthalpy [kcal/mol]
Conditions	298.15 K	313.15 K
x1 = 0.0503	0.0239	0.0339
x1 = 0.0998	0.0488	0.0681
x1 = 0.1497	0.0731	0.0994
x1 = 0.2	0.098	–
x1 = 0.2001	–	0.133
x1 = 0.2506	0.122	–
x1 = 0.2507	–	0.163
x1 = 0.2997	0.144	0.191
x1 = 0.3506	0.165	–
x1 = 0.3507	–	0.217
x1 = 0.3997	0.183	–
x1 = 0.3998	–	0.238
x1 = 0.4505	0.201	–
x1 = 0.4506	–	0.258
x1 = 0.5012	0.214	–
x1 = 0.5013	–	0.273
x1 = 0.5495	0.225	0.285
x1 = 0.5993	0.233	–
x1 = 0.5995	–	0.293
x1 = 0.651	0.238	0.297
x1 = 0.6997	0.238	–
x1 = 0.6998	–	0.296
x1 = 0.7501	0.234	0.288
x1 = 0.7996	0.223	0.273
x1 = 0.8506	0.205	–
x1 = 0.8507	–	0.248
x1 = 0.9007	–	0.21
x1 = 0.9008	0.176	–
x1 = 0.9496	0.126	0.143

c1ccccc1 [benzene] + CCCO
Conditions	excess molar enthalpy [kcal/mol]
298.15 K, x1 = 0.0492	0.0253
298.15 K, x1 = 0.0993	0.0523
298.15 K, x1 = 0.1503	0.0798
298.15 K, x1 = 0.2006	0.106
298.15 K, x1 = 0.2499	0.132
298.15 K, x1 = 0.3001	0.156
298.15 K, x1 = 0.3493	0.178
298.15 K, x1 = 0.3994	0.198
298.15 K, x1 = 0.4505	0.217
298.15 K, x1 = 0.5004	0.231
298.15 K, x1 = 0.5491	0.243
298.15 K, x1 = 0.5987	0.251
298.15 K, x1 = 0.6492	0.256
298.15 K, x1 = 0.7006	0.255
298.15 K, x1 = 0.7507	0.249
298.15 K, x1 = 0.7994	0.237
298.15 K, x1 = 0.8489	0.217
298.15 K, x1 = 0.8992	0.184
298.15 K, x1 = 0.9504	0.128
313.15 K, x1 = 0.0493	0.0325
313.15 K, x1 = 0.0995	0.0662
313.15 K, x1 = 0.1506	0.1
313.15 K, x1 = 0.2009	0.133
313.15 K, x1 = 0.2503	0.162
313.15 K, x1 = 0.3005	0.191
313.15 K, x1 = 0.3498	0.217
313.15 K, x1 = 0.3999	0.24
313.15 K, x1 = 0.451	0.262
313.15 K, x1 = 0.5009	0.278
313.15 K, x1 = 0.5497	0.291
313.15 K, x1 = 0.5993	0.299
313.15 K, x1 = 0.6497	0.303
313.15 K, x1 = 0.701	0.3
313.15 K, x1 = 0.7511	0.291
313.15 K, x1 = 0.7997	0.276
313.15 K, x1 = 0.8491	0.25
313.15 K, x1 = 0.8994	0.209
313.15 K, x1 = 0.9505	0.14
